Data taken from US20230091047A1 (priority 2019, published 2023).

Assays:
[1] = system: HBV (HepG2.117 cell line, inducibly HBV producing); assay: Anti-HBV activity: intracellular HBV DNA by real-time PCR in HepG2.117 cells after 3 days of treatment; type: cell-based, hepatitis B virus; conditions: Hepatitis B virus, HepG2.117, 72 h, HepG2.117 cells, 3 days of treatment, intracellular HBV DNA by real-time PCR; mean value; read-out: EC50 (μM, mean value)
Outline: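 HepG2.117 cells (Tet-off, inducible HBV production) were induced to replicate HBV by doxycycline absence, then treated with serially diluted compound for 3 days. Activity was quantified as intracellular HBV DNA by real-time PCR using an HBV-specific primer set and probe.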

in vitro = type: cell-based; conditions: human, HepG2 or HepG2.117 cells, ATPlite, mean value; for CC50 at 3 days: 3-days incubation (unmarked values); for CC50 at 4 days: 4-days incubation (values marked with *)
Outline: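 Luminescent ATP quantitation served as the viability endpoint following a 3- or 4-day incubation with test compounds.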

Row | SMILES | EC50 [1] [µM] | CC50 at 3 days (in vitro) [µM] | CC50 at 4 days (in vitro) [µM]
1 | COc1ccc(CNc2nc3c(c(=O)n2-c2cccc(OC)c2)CCN(C(=O)c2ccc(Cl)c(Cl)c2)C3)cc1 [Compound C8, 7-(3,4-dichlorobenzoyl)-3-(3-methoxyphenyl)-2-{[(4-methoxyphenyl)methyl]amino}-5,6,7,8-tetrahydropyrido[3,4-d]pyrimidin-4(3H)-one] | 1 | > 50 | –
2 | COc1ccccc1-n1c(NCc2cccnc2)nc2c(c1=O)CCN(C(=O)c1ccc(Cl)c(Cl)c1)C2 [Compound C9, 7-(3,4-dichlorobenzoyl)-3-(2-methoxyphenyl)-2-{[(pyridin-3-yl)methyl]amino}-5,6,7,8-tetrahydropyrido[3,4-d]pyrimidin-4(3H)-one] | 11.6 | – | > 50
3 | COc1ccccc1-n1c(NCc2ccccc2)nc2c(c1=O)CCN(C(=O)c1ccc(Cl)c(Cl)c1)C2 [Compound C10, 2-(benzylamino)-7-(3,4-dichlorobenzoyl)-3-(2-methoxyphenyl)-5,6,7,8-tetrahydropyrido[3,4-d]pyrimidin-4(3H)-one] | 6.21 | – | > 50
4 | CNc1nc2c(c(=O)n1-c1ccccc1OC)CCN(C(=O)c1ccc(Cl)c(Cl)c1)C2 [Compound C11, 7-(3,4-dichlorobenzoyl)-3-(2-methoxyphenyl)-2-(methylamino)-5,6,7,8-tetrahydropyrido[3,4-d]pyrimidin-4(3H)-one] | 6.41 | – | > 50
5 | COc1ccccc1-n1c(NCc2ccccn2)nc2c(c1=O)CCN(C(=O)c1ccc(Cl)c(Cl)c1)C2 [Compound C12, 7-(3,4-dichlorobenzoyl)-3-(2-methoxyphenyl)-2-{[(pyridin-2-yl)methyl]amino}-5,6,7,8-tetrahydropyrido[3,4-d]pyrimidin-4(3H)-one] | 5.95 | – | > 50
6 | COc1ccccc1-n1c(NCc2nccs2)nc2c(c1=O)CCN(C(=O)c1ccc(Cl)c(Cl)c1)C2 [Compound C13, 7-(3,4-dichlorobenzoyl)-3-(2-methoxyphenyl)-2-{[(1,3-thiazol-2-yl)methyl]amino}-5,6,7,8-tetrahydropyrido[3,4-d]pyrimidin-4(3H)-one] | 8.75 | – | 38.9
7 | COc1ccc(CNc2nc3c(c(=O)n2-c2ccccc2F)CCN(C(=O)c2ccc(Cl)c(Cl)c2)C3)cc1 [Compound C14, 7-(3,4-dichlorobenzoyl)-3-(2-fluorophenyl)-2-{[(4-methoxyphenyl)methyl]amino}-5,6,7,8-tetrahydropyrido[3,4-d]pyrimidin-4(3H)-one] | 1 | > 50 | –
8 | COc1ccc(CNc2nc3c(c(=O)n2-c2ccccc2Cl)CCN(C(=O)c2ccc(Cl)c(Cl)c2)C3)cc1 [Compound C15, 3-(2-chlorophenyl)-7-(3,4-dichlorobenzoyl)-2-{[(4-methoxyphenyl)methyl]amino}-5,6,7,8-tetrahydropyrido[3,4-d]pyrimidin-4(3H)-one] | 1.08 | > 50 | –
9 | COc1ccccc1-n1c(NCc2cscn2)nc2c(c1=O)CCN(C(=O)c1ccc(Cl)c(Cl)c1)C2 [Compound C16, 7-(3,4-dichlorobenzoyl)-3-(2-methoxyphenyl)-2-{[(1,3-thiazol-4-yl)methyl]amino}-5,6,7,8-tetrahydropyrido[3,4-d]pyrimidin-4(3H)-one] | 2.29 | – | 45.3
10 | COc1ccccc1CNc1nc2c(c(=O)n1-c1ccccc1OC)CCN(C(=O)c1ccc(Cl)c(Cl)c1)C2 [Compound C17, 7-(3,4-dichlorobenzoyl)-3-(2-methoxyphenyl)-2-{[(2-methoxyphenyl)methyl]amino}-5,6,7,8-tetrahydropyrido[3,4-d]pyrimidin-4(3H)-one] | 0.97 | – | 28.9
11 | COc1cccc(CNc2nc3c(c(=O)n2-c2ccccc2OC)CCN(C(=O)c2ccc(Cl)c(Cl)c2)C3)c1 [Compound C18, 7-(3,4-dichlorobenzoyl)-3-(2-methoxyphenyl)-2-{[(3-methoxyphenyl)methyl]amino}-5,6,7,8-tetrahydropyrido[3,4-d]pyrimidin-4(3H)-one] | 3.27 | – | > 50
12 | COc1ccccc1-n1c(NCc2cncs2)nc2c(c1=O)CCN(C(=O)c1ccc(Cl)c(Cl)c1)C2 [Compound C19, 7-(3,4-dichlorobenzoyl)-3-(2-methoxyphenyl)-2-{[(1,3-thiazol-5-yl)methyl]amino}-5,6,7,8-tetrahydropyrido[3,4-d]pyrimidin-4(3H)-one] | 8.77 | > 50 | –
13 | COc1ccccc1-n1c(NCCc2ccccc2)nc2c(c1=O)CCN(C(=O)c1ccc(Cl)c(Cl)c1)C2 [Compound C20, 7-(3,4-dichlorobenzoyl)-3-(2-methoxyphenyl)-2-[(2-phenylethyl)amino]-5,6,7,8-tetrahydropyrido[3,4-d]pyrimidin-4(3H)-one] | 8.92 | – | 23.1
14 | O=C(c1ccc(Cl)c(Cl)c1)N1CCc2c(nc(NCc3ccccc3)[nH]c2=O)C1 [Compound C21, 2-(benzylamino)-7-(3,4-dichlorobenzoyl)-5,6,7,8-tetrahydropyrido[3,4-d]pyrimidin-4(3H)-one] | 7.51 | – | 24.7
15 | COc1ccccc1-n1c(NCC(C)C)nc2c(c1=O)CCN(C(=O)c1ccc(Cl)c(Cl)c1)C2 [Compound C22, 7-(3,4-dichlorobenzoyl)-3-(2-methoxyphenyl)-2-[(2-methylpropyl)amino]-5,6,7,8-tetrahydropyrido[3,4-d]pyrimidin-4(3H)-one] | 21.7 | – | 26.2
16 | COc1ccccc1-n1c(NCc2ccc(C(F)(F)F)cc2)nc2c(c1=O)CCN(C(=O)c1ccc(Cl)c(Cl)c1)C2 [Compound C23, 7-(3,4-dichlorobenzoyl)-3-(2-methoxyphenyl)-2-({[4-(trifluoromethyl)phenyl]methyl}amino)-5,6,7,8-tetrahydropyrido[3,4-d]pyrimidin-4(3H)-one] | 2.56 | – | > 50
17 | COc1ccccc1-n1c(NC(C)C)nc2c(c1=O)CCN(C(=O)c1ccc(Cl)c(Cl)c1)C2 [Compound C24, 7-(3,4-dichlorobenzoyl)-3-(2-methoxyphenyl)-2-[(propan-2-yl)amino]-5,6,7,8-tetrahydropyrido[3,4-d]pyrimidin-4(3H)-one] | 2.25 | – | > 50
18 | COc1ccccc1-n1c(NCC2CCN(C(C)=O)CC2)nc2c(c1=O)CCN(C(=O)c1ccc(Cl)c(Cl)c1)C2 [Compound C25, 2-{[(1-acetylpiperidin-4-yl)methyl]amino}-7-(3,4-dichlorobenzoyl)-3-(2-methoxyphenyl)-5,6,7,8-tetrahydropyrido[3,4-d]pyrimidin-4(3H)-one] | 44.7 | > 50 | –
19 | COc1ccccc1-n1c(NCc2ccc3c(c2)OCO3)nc2c(c1=O)CCN(C(=O)c1ccc(Cl)c(Cl)c1)C2 [Compound C26, 2-{[(2H-1,3-benzodioxol-5-yl)methyl]amino}-7-(3,4-dichlorobenzoyl)-3-(2-methoxyphenyl)-5,6,7,8-tetrahydropyrido[3,4-d]pyrimidin-4(3H)-one] | 1.72 | > 50 | –
20 | COc1ccccc1-n1c(NCc2ccc(S(C)(=O)=O)cc2)nc2c(c1=O)CCN(C(=O)c1ccc(Cl)c(Cl)c1)C2 [Compound C27, 7-(3,4-dichlorobenzoyl)-2-({[4-(methanesulfonyl)phenyl]methyl}amino)-3-(2-methoxyphenyl)-5,6,7,8-tetrahydropyrido[3,4-d]pyrimidin-4(3H)-one] | 1.98 | > 50 | –
21 | COCCn1c(NCc2ccccc2)nc2c(c1=O)CCN(C(=O)c1ccc(Cl)c(Cl)c1)C2 [Compound C28, 2-(benzylamino)-7-(3,4-dichlorobenzoyl)-3-(2-methoxyethyl)-5,6,7,8-tetrahydropyrido[3,4-d]pyrimidin-4(3H)-one] | 9.1 | 25.2 | –
22 | COc1ccccc1-n1c(NCc2ccc(F)cc2F)nc2c(c1=O)CCN(C(=O)c1ccc(Cl)c(Cl)c1)C2 [Compound C29, 7-(3,4-dichlorobenzoyl)-2-{[(2,4-difluorophenyl)methyl]amino}-3-(2-methoxyphenyl)-5,6,7,8-tetrahydropyrido[3,4-d]pyrimidin-4(3H)-one] | 7.43 | 23.3 | –
23 | COc1ccccc1-n1c(NCc2ccc(Cl)cc2Cl)nc2c(c1=O)CCN(C(=O)c1ccc(Cl)c(Cl)c1)C2 [Compound C30, 7-(3,4-dichlorobenzoyl)-2-{[(2,4-dichlorophenyl)methyl]amino}-3-(2-methoxyphenyl)-5,6,7,8-tetrahydropyrido[3,4-d]pyrimidin-4(3H)-one] | > 50 | > 50 | –
24 | COc1ccc(CN(C)c2nc3c(c(=O)[nH]2)CCN(C(=O)c2ccc(Cl)c(Cl)c2)C3)cc1 [Compound C31, 7-(3,4-dichlorobenzoyl)-2-{[(4-methoxyphenyl)methyl](methyl)amino}-5,6,7,8-tetrahydropyrido[3,4-d]pyrimidin-4(3H)-one] | 2.63 | > 50 | –
25 | COc1ccccc1-n1c(NC2CCC2)nc2c(c1=O)CCN(C(=O)c1ccc(Cl)c(Cl)c1)C2 [Compound C32, 2-(cyclobutylamino)-7-(3,4-dichlorobenzoyl)-3-(2-methoxyphenyl)-5,6,7,8-tetrahydropyrido[3,4-d]pyrimidin-4(3H)-one] | 19.9 | 29.5 | –
26 | O=C(c1ccc(Cl)c(Cl)c1)N1CCc2c(nc(NCc3ccccc3)n(-c3ccccc3)c2=O)C1 [Compound C33, 2-(benzylamino)-7-(3,4-dichlorobenzoyl)-3-phenyl-5,6,7,8-tetrahydropyrido[3,4-d]pyrimidin-4(3H)-one] | 4.27 | 24.4 | –
